Assay results published in patent US6787525B1, “Glyceryl nucleotides, method for the production thereof and their use” (priority 1998, dated 2004).

Key:
HOP-92 = test: In vitro cytostatic effect (SRB): HOP-92, Lung cancer
MCF7 = test: In vitro cytostatic effect (SRB): MCF7, Breast cancer
UO-31 = test: In vitro cytostatic effect (SRB): UO-31, Kidney cancer
[1] = read-out: LC50, 48-hour incubation

`CCCCCCCCCCCCCCCCCCOC(COP(=O)(O)OCC1OC(n2cc(F)c(=O)[nH]c2=O)CC1O)COP(=O)(O)OCC1OC(n2ccc(N)nc2=O)C(O)C1O` (racemic) [NSC 698688-A/1, arabinocytidylyl-(5′→1)-2-O-octadecyl-rac-glycerylyl-(3→5′)-5-fluoro-2′-deoxyuridine] was tested, and the GI50 (HOP-92; 48-hour incubation) was 0.0802 µM, the TGI (HOP-92; 48-hour incubation) was 8.99E − 05 mol/l and the CC50 (HOP-92; [1]) was > 100 µM. The GI50 (MCF7; 48-hour incubation) was 0.17 µM, the TGI (MCF7; 48-hour incubation) was >1.00E − 04 mol/l and the CC50 (MCF7; [1]) was > 100 µM. The GI50 (UO-31; 48-hour incubation) was 21.3 µM, the TGI (UO-31; 48-hour incubation) was >1.00E − 04 mol/l and the CC50 (UO-31; [1]) was > 100 µM.
